Patent US20240150368A1, “ULK INHIBITORS AND METHODS OF USE THEREOF” (Deciphera Pharmaceuticals, LLC, priority 2022, published 2024)

Tests used:
[1] = system: ULK kinase substrate ATG13 (pS318-ATG13) in HCT-116 cells; test: pATG13 levels of mutant KRas HCT-116 cells after treatment with ULK inhibitors in combination with trametinib (ELISA); format: cell-based, human
Procedure: pATG13 Levels of Mutant KRas HCT-116 Cells after Treatment with ULK Inhibitors in Combination with Trametinib
HCT-116 human colon cancer cells (10000 cells/well) were added to a 384-well tissue-culture treated plate in 50 μL of pre-warmed DMEM medium supplemented with 10% characterized fetal bovine serum (Invitrogen, Carlsbad, CA), 100 units/mL penicillin G, and 100 μg/mL streptomycin and allowed to grow overnight at 37° C., 5% CO2, and 95% humidity. The following day, 10 μL of media containing trametinib or DMSO as a control was added to wells. The final concentration of trametinib in wells was 250 nM. A dose response of a test compound (0.6 μL per well) was added. DMSO (0.6 μL) was added to control wells. The plate was briefly shaken to mix wells and then incubated at 37° C. overnight. The next day, the media was aspirated and cells were washed with Dulbecco's Phosphate Buffered Saline (Gibco). Cells were lysed using MPER lysis buffer (Pierce, Rockford, IL) containing Halt Phosphatase and Protease Inhibitors (Pierce, Rockford, IL) and Phosphatase inhibitor cocktail 2 (Sigma, St. Louis, MO) at 4° C. for 10 minutes with shaking.
(§1) Cellular levels of phospho-Serine 318 ATG13 (pATG13) were measured via an ELISA method. Total ATG13 Antibody (Cell Signaling Cat #13273) was used to coat the wells. The plate was incubated at 4° C. overnight and washed with ELISA wash buffer (Biolegend Cat #421601). The wells were then blocked with assay diluent (Biolegend Cat #421203) for 1 h at rt. Plate wells were washed with ELISA wash buffer. Cell lysate was added to wells and incubated at rt for 2 h. Plate wells were washed with ELISA wash buffer. Biotinylated pS318-ATG13 antibody (Rockland Immunochemicals Cat #600-401-C49) was diluted in assay diluent and added to each well and incubated at rt for 1 h. Plate wells were washed with ELISA wash buffer. Streptavidin linked to horseradish peroxidase (Thermo Fisher Cat #21140) was diluted in assay diluent and added to each well and incubated at rt for 1 h. Plate wells were washed with ELISA wash buffer. High sensitivity TMB substrate (Biolegend Cat #421101) was added to each well and incubated at rt for 20 minutes. The reaction was stopped with 2.0N sulfuric acid. The plate was analyzed at on a plate reader measuring absorbance at 450 nm and 540 nm (background). Signal was calculated by first subtracting the background absorbance at 540 nm from the absorbance at 450 nm for each well. Next, the background corrected absorbance at 450 nm from blank wells was subtracted from test wells. Data was compared to control wells to determine % ATG13 phosphorylation. GraphPad Prism was used to calculate IC50 values.

[2] = system: ULK kinase substrate ATG13 (pS318-ATG13) in T24 cells; test: pATG13 levels of mutant HRas T24 cells after treatment with ULK inhibitors in combination with trametinib (ELISA); format: cell-based, human; settings: in combination with trametinib 250 nM
Procedure: pATG13 Levels of Mutant HRas T24 Cells after Treatment with ULK Inhibitors in Combination with Trametinib
T24 human urinary bladder cancer cells (25000 cells/well) were added to a 96-well tissue-culture treated plate in 100 μL of pre-warmed DMEM medium supplemented with 10% characterized fetal bovine serum (Invitrogen, Carlsbad, CA), 100 units/mL penicillin G, and 100 μg/mL streptomycin and allowed to grow overnight at 37° C., 5% CO2, and 95% humidity. The following day, 100 μL of media containing trametinib or DMSO as a control was added to wells. The final concentration of trametinib in wells was 250 nM. A dose response of a test compound (0.5 μL per well) was added. DMSO (0.5 μL) was added to control wells. The plate was briefly shaken to mix wells and then incubated at 37° C. overnight. The next day, the media was aspirated and cells were washed with Dulbecco's Phosphate Buffered Saline (Gibco). Cells were lysed using MPER lysis buffer (Pierce, Rockford, IL) containing Halt Phosphatase and Protease Inhibitors (Pierce, Rockford, IL) and Phosphatase inhibitor cocktail 2 (Sigma, St. Louis, MO) at 4° C. for 10 min with shaking.
as §1, with “min.” for “minutes.”

| SMILES | IC50 [1] [nM] | IC50 [2] [nM] |
| --- | --- | --- |
| CC/C(Nc1cnn(C(C)C)c1)=C1/C(=O)Nc2ccc(C(=O)NCC(F)(F)F)cc21 [Example 4, (Z)-3-(1-((1-isopropyl-1H-pyrazol-4-yl)amino)propylidene)-2-oxo-N-(2,2,2-trifluoroethyl)indoline-5-carboxamide] | ≤ 100 |  |
| CC/C(Nc1cnn(C2CCN(C(C)C)CC2)c1)=C1/C(=O)Nc2ccc(C(=O)N(C)CC(F)(F)F)cc21 [Example 7] | ≤ 100 | ≤ 100 |
| CC/C(Nc1cnn(C2CCN(C(C)C)CC2)c1)=C1/C(=O)Nc2ccc(C(=O)NCC(F)(F)F)cc21 [Example 8] | ≤ 100 | ≤ 100 |
| CC/C(Nc1cnn(C2CCN(C(C)C)CC2)c1)=C1/C(=O)Nc2ccc(C(=O)N(C)CCOC)cc21 [Example 9] | ≤ 100 | 100 to 300 |
| CC/C(Nc1cnn(C2CCN(C(C)C)CC2)c1)=C1/C(=O)Nc2ccc(C(=O)NCC(C)C)cc21 [Example 16] | ≤ 100 | ≤ 100 |
| CC/C(Nc1cnn(C2CCN(C(C)C)CC2)c1)=C1/C(=O)Nc2ccc(C(=O)NCCC#N)cc21 [Example 26] | ≤ 100 |  |
| CC/C(Nc1ccc(N2CCN(C(C)C)CC2)cc1)=C1/C(=O)Nc2ccc(C(=O)NC[C@H]3CCCO3)cc21 [Example 47] | ≤ 100 |  |
| CC/C(Nc1cnn(C2CCNCC2)c1)=C1/C(=O)Nc2ccc(C(=O)NC[C@H]3CCCO3)cc21 [Example 52] | ≤ 100 |  |
| CC/C(Nc1cnn(C2CC3CCC(C2)N3C)c1)=C1/C(=O)Nc2ccc(C(=O)NC[C@H]3CCCO3)cc21 (stereo partly shown) [Example 53] | ≤ 100 |  |
| CC/C(Nc1cnn(C2CN(C)C2)c1)=C1/C(=O)Nc2ccc(C(=O)NC[C@H]3CCCO3)cc21 [Example 54] | ≤ 100 |  |
| CC/C(Nc1cnn(C2CCN(C(C)C)CC2)c1)=C1/C(=O)Nc2ccc(C(=O)NC[C@@H](C)OC)cc21 [Example 58] | ≤ 100 |  |
| CC/C(Nc1ccc(N2CC3CC(C2)N3C)cc1)=C1/C(=O)Nc2ccc(C(=O)NCC(F)(F)F)cc21 [Example 60] | ≤ 100 |  |
| CC/C(Nc1ccc(N2C[C@H]3CN(C)C[C@H]3C2)cc1)=C1/C(=O)Nc2ccc(C(=O)NCC(F)(F)F)cc21 [Example 61] | ≤ 100 |  |
| CC/C(Nc1ccc(N2CCN(C(C)C)CC2)cn1)=C1/C(=O)Nc2ccc(C(=O)NC[C@H]3CCCO3)cc21 [Example 93] | ≤ 100 |  |
| CC/C(Nc1cnn(C2CCN(C(C)C)CC2)c1)=C1/C(=O)Nc2ccc(C(=O)NCCOC)cc21 [Example 98] | ≤ 100 | ≤ 100 |
| CC/C(Nc1cnn(CC)c1)=C1/C(=O)Nc2ccc(C(=O)NCC(F)(F)F)cc21 [Example 107] | ≤ 100 |  |
| CC/C(Nc1cnn(C(F)(F)F)c1)=C1/C(=O)Nc2ccc(C(=O)NCC(F)(F)F)cc21 [Example 113] | ≤ 100 |  |
| CC/C(Nc1cnn(C(F)F)c1)=C1/C(=O)Nc2ccc(C(=O)NCC(F)(F)F)cc21 [Example 114] | ≤ 100 |  |
| CC/C(Nc1cnn(C2CCC2)c1)=C1/C(=O)Nc2ccc(C(=O)NCC(F)(F)F)cc21 [Example 117] | ≤ 100 |  |
| CC/C(Nc1cnn(C2CCN(C(C)C)CC2)c1)=C1/C(=O)Nc2ccc(C(C)=O)cc21 [Example 123] | 100 to 300 |  |
| CC/C(Nc1cnn(C(C)C)c1)=C1/C(=O)Nc2ccc(C(=O)NCC(C)C)cc21 [Example 130] | ≤ 100 |  |
| CC/C(Nc1cnn(C(C)C)c1)=C1/C(=O)Nc2ccc(C(=O)NCC(C)(C)F)cc21 [Example 135] | ≤ 100 |  |
| CC/C(Nc1cnn(C(C)C)c1)=C1/C(=O)Nc2ccc(C(=O)NCC3(C(F)(F)F)CC3)cc21 [Example 140] | ≤ 100 |  |
